Results as given in patent US5068064A, “N-substituted lauramides, their preparation and compositions in which they are present” (Sanofi, priority 1989, dated 1991).
≈ marks a conversion by molar mass, not a printed value.

Experiments:
[1] = tested on: Staphylococcus aureus CIP 53154; test: Minimum bactericidal concentration, first method (30 min contact), S. aureus; format: cell-based; settings: CIP53154, 0.5 h, contact time 30 minutes
From the text: (§1) In the two methods, a bacterial inoculum is brought into contact with different dilutions of the product for a determined period of time.
(§2) When the contact period has ended, an aliquot of the mixture of bacterial suspension and product is taken and brought into contact with an agent for neutralizing the bacterial activity of the mixture, either in a solid medium or in a liquid medium. The bactericidal activity of the product, expressed either as a concentration or as a percentage of active principle, corresponds to an absence of bacterial growth.
(§3) The first method makes it possible to define a minimum bactericidal concentration (MBC) or minimum fungicidal concentration (MFC), expressed in μg/ml. The contact time between product and bacterial suspension is 30 minutes. The neutralizer is included in agar.
(§4) The CIP bacterial strains chosen for the study, which are available from the Institut Pasteur, are:
(§5) 1. Staphylococcus aureus
(§6) The strains are maintained on Tryptic Soy Agar® (TSA) marketed by Difco.
(§7) After 24 hours of culture at 37° C., the microbial growth is harvested with the aid of glass beads and 10 ml of diluent containing 1 g of tryptone and 8.5 g of sodium chloride in 1000 ml of distilled water. The suspension formed is shaken and the percentage transmission of light at 620 nm is measured in a spectrophotometer:
(§8) The bacterial inoculum corresponds to a 1:20 dilution of this bacterial suspension.
(§9) Plates containing cupules receive different dilutions of the test product. These dilutions of the test product are brought into contact with the different bacterial suspensions using a multiple site inoculator. After a contact time of 30 minutes, aliquots are transferred with this inoculator to the surface of an agar medium (TSA) placed in Petri dishes containing an activity neutralizer, namely 20 g of lubrol W, 2.5 g of Tween 80, 2.5 g of sodium thiosulfate and 1% of egg yolk in 1000 ml of TSA (Difco). A control for the efficacy of the neutralizer is prepared for each test product by depositing an aliquot of the dilution of the test product on the surface of the culture medium. After drying, the corresponding inoculum is deposited in the same place. An inoculum control is prepared on agar medium with and without neutralizer. The results are read off after 48 hours of incubation at 37° C.
(§10) They indicate the minimum bactericidal concentrations (MBC) for strains 1, 2, 3 and 4 and the minimum fungicidal concentrations (MFC) for strain 5.

[2] = tested on: Enterococcus faecium CIP 5855; test: Minimum bactericidal concentration, first method (30 min contact), E. faecium; format: cell-based; settings: CIP5855, 0.5 h, contact time 30 minutes
From the text: as §1, §2, §3, §4, §6, §7, §8, §9, §10

[3] = tested on: Escherichia coli CIP 54127; test: Minimum bactericidal concentration, first method (30 min contact), E. coli; format: cell-based; settings: CIP54127, 0.5 h, contact time 30 minutes
From the text: as §1, §2, §3, §4
(§11) 3. Escherichia coli CIP 54127
as §6, §7, §8, §9, §10

[4] = tested on: Pseudomonas aeruginosa CIP A22; test: Minimum bactericidal concentration, first method (30 min contact), P. aeruginosa; format: cell-based; settings: CIPA22, 0.5 h, contact time 30 minutes
From the text: as §1, §2, §3, §4
4. Psuedomonas aeruginosa
as §6, §7, §8, §9, §10

[5] = tested on: Candida albicans CIP 1180; test: Minimum fungicidal concentration, first method (30 min contact), C. albicans; format: cell-based; settings: CIP1180, 0.5 h, contact time 30 minutes
From the text: as §1, §2, §3, §9
The antifungal activity of the products according to the invention was also determined using the method described above. A representative strain of yeast was selected for the study: Candida albicans CIP 1180 (strain 5).
This is maintained on Sabouraud's Dextrose Agar marketed by Difco. The technique is identical to that described for studying the antibacterial activity. After 48 hours of culture at 37° C., the microbial growth is harvested with the aid of glass beads and 5 ml of diluent containing 1 g of tryptone and 8.5 g of sodium chloride in 1000 ml of distilled water; a further 5 ml of the diluent are then added. This suspension gives a percentage transmission of light at 620 nm of 2 to 3% in a spectrophotometer.
The inoculum corresponds to a 1:10 dilution of this microbial suspension. A 1:100 dilution of this suspension, observed between slide and cover glass through a No. 40 microscope objective, must show 10 cells per field, which corresponds to 1,000,000 yeasts per ml.
as §10

[6] = tested on: Staphylococcus aureus CIP 53154; test: Percentage of bactericidal active principle, second method (5 min contact), S. aureus; format: cell-based; settings: with proteins as interfering substances, destruction of 99.99%
From the text: as §1, §2
(§12) The second method makes it possible to define a percentage of bactericidal or fungicidal active principle by means of a simplified and automated adaptation of Afnor standards NF T 72-150 and NF T 72-170. In this method, the bactericidal activity of the product is determined with and without interfering substances. It is based on assessing the destruction of 99.99% of the initial bacteria by the product in 5 minutes. The interfering substances are of the protein type and are chosen for the actual conditions of application of this type of product. The contact time between product and bacterial suspension is 5 minutes, the neutralization step is 10 minutes and subculture is effected in a liquid medium.
(§13) The chosen bacterial strains are:
as §5, §6
(§14) The strains are harvested in a manner identical to the first method; these suspensions contain between 1.10^8 and 3.10^8 cells per milliliter. Appropriate dilutions make it possible to have a suspension containing 2 to 6.10^3 cells per milliliter.
(§15) The experiment is performed in microtiter plates; it comprises two steps. The first step, called the preliminary test, checks that the product is indeed neutralized. In the test proper, the different dilutions of the product are brought into contact with 2 to 6.10^3 cells per milliliter of the bacterial suspension in the second row of the microtiter plate. After a contact time of 5 minutes, an aliquot is transferred to the third row containing the neutralizer adapted to the product and to the strain. After a contact time of 10 minutes, aliquots are transferred to the last 5 rows containing Tryptic Soy Broth® (TSB) from Difco.
(§16) The interfering substances tested are a mixture of albumin and yeast extract. In the first row of the microplate, these proteins are brought into contact for 5 minutes with the different dilutions of the product. After this step, the same principle as above is applied: 5 minutes of contact with the germ, 10 minutes of contact with the neutralizer, transfer to TSB.

[7] = tested on: Enterococcus faecium CIP 5855; test: Percentage of bactericidal active principle, second method (5 min contact), E. faecium; format: cell-based; settings: destruction of 99.99%
From the text: as §1, §2, §12, §13, §6, §14, §15, §16

[8] = tested on: Escherichia coli CIP 54127; test: Percentage of bactericidal active principle, second method (5 min contact), E. coli; format: cell-based; settings: destruction of 99.99%
From the text: as §1, §2, §12, §13, §11, §6, §14, §15, §16

[9] = tested on: Pseudomonas aeruginosa CIP A22; test: Percentage of bactericidal active principle, second method (5 min contact), P. aeruginosa; format: cell-based; settings: destruction of 99.99%
From the text: as §1, §2, §12, §13
4. Pseudomonas aeruginosa
as §6, §14, §15, §16

[10] = tested on: Candida albicans CIP 1180; test: Percentage of fungicidal active principle, second method (5 min contact), C. albicans; format: cell-based
From the text: as §1, §2, §12, §15, §16
The antifungal activity of the products according to the invention was also determined with and without interfering substances using the method described above. The same strain was used as for the first technique, namely Candida albicans CIP 1180. It is harvested in an identical manner to that described in the first method.

[11] = tested on: Mycobacterium smegmatis CIP 7326; test: Percentage of bactericidal active principle, second method (5 min contact), M. smegmatis; format: cell-based; settings: with proteins as interfering substances, destruction of 99.99%
From the text: as §1, §2, §12, §13
5. Mycobacterium smegmatis
as §6, §14, §15, §16

[12] = tested on: S. aureus, E. faecium, E. coli, P. aeruginosa, C. albicans, M. smegmatis; test: Second method, bactericidal and fungicidal activity over all strains (Table III); format: cell-based; settings: contact time 5 minutes
From the text: as §1, §2
as §12, with “The contact time between product and bacterial suspension is 5 minutes, the neutralization step is 10 minutes and subculture is effected in a liquid medium.” left out
The antifungal activity of the products according to the invention was also determined with and without interfering substances using the method described above. […]

[13] = Product solubility; settings: water
[14] = Simple: without interfering substances
[15] = with proteins as interfering substances

## CCCCCCCCCCCC(=O)NCCN(C)C [D1, reference compound]
[1]
  MBC: 50 µg/mL (≈ 185 µM)
[2]
  MBC: 50 µg/mL (≈ 185 µM)
[3]
  MBC: 50 µg/mL (≈ 185 µM)
[4]
  MBC: 50 µg/mL (≈ 185 µM)
[5]
  MFC: 200 µg/mL (≈ 739 µM)
[6]
  Bactericidal activity, results in percentage of active principle, S. aureus: 0.5 percentage of active principle
[7]; [14]
  Bactericidal activity, results in percentage of active principle, E. faecium: 0.01 percentage of active principle
[7]; [15]
  Bactericidal activity, results in percentage of active principle, E. faecium: 0.1 percentage of active principle
[8]; [14]
  Bactericidal activity, results in percentage of active principle, E. coli: 0.05 percentage of active principle
[8]; [15]
  Bactericidal activity, results in percentage of active principle, E. coli: 0.1 percentage of active principle
[9]; [14]
  Bactericidal activity, results in percentage of active principle, P. aeruginosa: 0.05 percentage of active principle
[9]; [15]
  Bactericidal activity, results in percentage of active principle, P. aeruginosa: 0.5 percentage of active principle
[10]; [14]
  Fungicidal activity, results in percentage of active principle, C. albicans: 0.1 percentage of active principle
[10]; [15]
  Fungicidal activity, results in percentage of active principle, C. albicans: 0.5 percentage of active principle
[11]
  Bactericidal activity, results in percentage of active principle, M. smegmatis: > 0.5 percentage of active principle
[12]
  Ranking of activities among the products: the activities are the lowest
[13]
  solubility: 18 mg/mL (≈ 66600 µM)
